{"source": "patent US8324346B2", "about": "“Bioactive keratin peptides” (Keraplast Technologies, Ltd., priority 2002, dated 2012)", "key": {"[1]": {"tested_on": "keratinocytes", "assay": "Mitogenic effects of crude peptide compositions on keratinocytes (OD 530 nm)", "type": "cell-based, human", "settings": "5 days of exposure, positive control"}, "[2]": {"tested_on": "human dermal fibroblasts", "assay": "Biological effect of peptide compositions on human dermal fibroblasts (cell proliferation)", "type": "cell-based", "settings": "for increase in cell proliferation: human dermal fibroblasts, positive control", "method": "A second set of studies was performed that tested the biological effect of the peptide compositions on human dermal fibroblasts after three and five days of exposure. After three days of exposure, the peptide composition produced a greater than 25% increase in cell proliferation at concentrations between 0.5 and 10 ug/ml. The positive control, […] fibroblast growth factor (bFGF25), produced a greater than 30% increase in cell proliferation. After five days of exposure, peptide compositions at a concentration of 0.5 to 10 ug/ml produced increases in cell proliferation of between 9% and 12%. The positive control produced a greater than 13% increase.\nRelated in vitro tests confirmed that the mitogenic effect of the peptide compositions on dermal fibroblasts increased with concentration up to nearly 150% of the negative control at 1000 ug/ml concentration. Compositions with greater purity increased the mitogenic effect to over 1000% of the negative control. The positive control in these studies, platelet derived growth factor (PDGF), increased the mitogenic effect to nearly 700% of the negative control."}}, "data": [{"substance": "EGF25: epidermal growth factor (EGF25), positive control in the keratinocyte studies", "values": [{"measurement": "increase in keratinocyte proliferation", "setting": "[1]", "value": "greater than 25%"}]}, {"substance": "PDGF", "values": [{"measurement": "mitogenic effect, % of the negative control", "setting": "[2]; dermal fibroblasts, concentration not given", "value": "~700", "unit": "%"}]}, {"substance": "bFGF25: bovine-derived fibroblast growth factor (bFGF25), positive control", "values": [{"measurement": "increase in cell proliferation", "setting": "[2]; five days of exposure", "value": "greater than 13%"}, {"measurement": "increase in cell proliferation", "setting": "[2]; three days of exposure", "value": "greater than 30%"}]}]}
